According to publication PMC9599717, “The Multicellular Effects of VDAC1 N-Terminal-Derived Peptide” (Biomolecules, 2022):

System: U-87MG cells
Test: Immunoblotting of protein expression in peptide-treated cells
Format: cell-based, human
Settings: 12 h
Method: U-87 MG cells were treated with the indicated concentrations of D-Δ(1-18)N-Ter-Antp peptide in serum-free DMEM for 6 h. Then cells were lysed in lysis buffer (100 mM Tris/HCl pH 8.0, 5% sodium dodecyl sulfate [SDS]), supplemented with a protease inhibitor cocktail (Calbiochem, San Diego, CA, USA). The lysates were vortexed and heated at 70 °C for 10 min. Finally, cell lysates were centrifuged (15,000× g, 10 min at 4 °C), and the protein concentration of the supernatant was determined according to the Lowry assay with a slight modification. Protein samples were stored at −80 °C until subsequent gel electrophoresis. Protein samples (20 μg) were resolved by SDS-polyacrylamide gel electrophoresis and immunoblotted using selected primary antibodies (sources and dilutions are listed in Table S1), followed by incubation with appropriate horseradish peroxidase (HRP)-conjugated secondary antibodies (Table S1). Proteins were detected using the EZ-ECL Enhanced Chemiluminescence Detection Kit (Biological Industries, Beit Haemek, Israel). Band intensities were analyzed with densitometry using FUSION-FX software (Vilber Lourmat, Collegien, France), and the values were normalized to β-actin.
Figure 3 The D-Δ(1-18)N-Ter-Antp peptide induced autophagy and cellular senescence and altered the expression of apoptosis-related proteins. (A,B) U-87MG cells were treated with the indicated concentrations of D-Δ(1-18)N-Ter-Antp peptide for 12 h and then were subjected to immunoblotting for caspase-9, AIF, Bcl-xL, Bcl-2, and Bax and the relative expression level was quantified (B). (C,D) U-87MG cells were treated with the indicated concentrations of D-Δ(1-18)N-Ter-Antp peptide for 12 h and then subjected to immunoblotting for the autophagy markers LC3-I and LC3-II (C) and LC3-II quantification (D). (E,F) U-87MG cells were treated with the indicated concentrations of D-Δ(1-18)N-Ter-Antp peptide for 12 h and then subjected to β-gal activity (blue). Mouse embryonic fibroblast cells at passage 10 (MEF-P10) served as a positive control of senescent cells. Quantification of β-gal staining intensity (F). Data are presented as the mean ± SD, n = 3, * p < 0.05; ** p < 0.01; *** p < 0.001 versus control group. NS, non-specific. The images were captured at 40× and two folds enlargement is shown.
Figure 4 The D-Δ(1-18)N-Ter-Antp induced the altered expression of metabolism and signaling-related proteins. (A,B) U-87MG cells were treated with the indicated concentrations of D-Δ(1-18)N-Ter-Antp peptide at the indicated concentration for 12 h and then subjected to immunoblot analyses of cell lysates for VDAC1, HK-I, ATPsyn5a, and citrate synthase (CS) (A). Quantification of the immunoblot (B). (C–E) Immunoblotting of the indicated proteins c-Jun, NF-κB-p65, p53, CDK2 and IkB-a (C) and their quantitative analysis (D,E). The results were from triplicates of different biological repeats (n = 3) and are presented as the means ± SEM. * p ≤ 0.05; ** p ≤ 0.01; *** p ≤ 0.001.

[1] = immunoblot normalized to β-actin, n = 3

For “19-FTKGYGFGL-26- RQIKIWFQNRRMKWKK [D-Δ(1-18)N-Ter-Antp]”, the “Autophagy, appearance of LC3-II” value (immunoblot for LC3-I and LC3-II) was “induced”, the “Decrease of expression of IκBα” value [1] was 2 fold and the “Decrease of expression of cyclin-dependent kinase 2 (CDK-2)” value [1] was 2 fold. For the same substance, the “Enhanced expression of c-Jun” value [1] was 6 fold, the “Enhanced expression of nuclear factor kappa B (NF-κB p65)” value [1] was 3.5 fold and the “Enhanced expression of p53” value [1] was 3 fold.
